In patent publication US12240844B2 (Voronoi, Inc., priority 2019, dated 2025):

What was measured:
Type in all cases: biochemical
[1] = biological target: T1, human GST-DYRK1A (full length) (Homo sapiens, UniProt Q13627); test: GST-DYRK1A enzyme inhibition, ADP-Glo kinase assay; conditions: read-out: DYRK1 IC50
T1 construct: purified human GST-DYRK1A (full length, Thermo scientifics) enzyme; GST; purchased Thermo scientifics
In short: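 Full-length human GST-DYRK1A (10 ng) incubated with 10 uM ATP and specific substrate for 1 h at 25° C in 40 mM Tris-HCl pH 7.4, 20 mM MgCl2, 0.5 mg/mL BSA, 50 uM DTT. ADP formation read by ADP-Glo luminescence; IC50 (nM) versus solvent control, triplicate.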

LRRK2 (G2019S) = LRRK2 (G2019S) (Homo sapiens, UniProt Q5S007, G2019S); test: LRRK2 G2019S enzyme inhibition, ADP-Glo kinase assay; set-up: purchased SignalChem L10-12GG
Protocol: In order to evaluate the inhibitory activity of the compounds according to the present invention on LRRK2, LRRK2 (G2019S), DYRK1, CLK1 and TTK kinases, the following experiment was performed.
Example compounds were reacted with the purified human LRRK2 G2019S (L10-12GG, SignalChem) enzyme to evaluate the enzyme inhibitory ability as follows. The reaction buffer was used as the composition of 40 mM Tris-HCl pH7.4, 20 mM MgCl2, 0.5 mg/ml BSA and 50 μM DTT, and the reaction of all test materials was performed on the reaction buffer. The compound was diluted with 10 mM DMSO stock in 12 steps by a serial dilution method, and the enzyme activity was measured at the final compound concentrations of 50, 10, 2, 0.4, 0.08, 0.016, 0.0032, 0.00064, 0.000128, 0.0000256, 0.00000512 and 0.000001024 μM. In the test, the human LRRK2 G2019S (16 ng) enzyme was reacted with the purified ATP (25 μM) and an enzyme substrate (0.2 μg) at 25° C. for 2 hours, and then the enzyme activity was identified using the in vitro ADP-Glo™ kinase assay (promega). The enzyme activity reaction liquid, an ADP-Glo reaction liquid and an enzyme potency detection solution were reacted in a ratio of 2:2:1, and the degree of inhibition of enzyme activity was measured by Luminescence. The degree of inhibition of enzyme activity according to the treatment concentrations of the respective compounds was calculated based on the fluorescence of the enzyme activity of a solvent control group that was not treated with the compound, where the concentration of each compound to inhibit enzyme activity inhibition by 50% was determined as an IC50 (nM) value and obtained using Prism (Version 5.01, GraphPad) software.
In the table below, the following designations were used for the evaluation of enzyme inhibitory ability.

human GST-CLK1 (129-end) = biological target: T2, human GST-CLK1 (129-end) (Homo sapiens, UniProt P49759); test: GST-CLK1 enzyme inhibition, ADP-Glo kinase assay; conditions: ATP 10 uM
T2 construct: purified human GST-CLK1 (129-end, Signalchem) enzyme; GST; purchased Signalchem
In short: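 GST-CLK1 (129-end, 3 ng) reacted with 10 uM ATP and substrate in 40 mM Tris-HCl pH 7.4, 20 mM MgCl2, 0.5 mg/mL BSA, 50 uM DTT, 1 h at 25° C. ADP-Glo luminescence normalised to solvent control; IC50 from triplicate data.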

T2 sequence (P49759 129-484 limits assumed): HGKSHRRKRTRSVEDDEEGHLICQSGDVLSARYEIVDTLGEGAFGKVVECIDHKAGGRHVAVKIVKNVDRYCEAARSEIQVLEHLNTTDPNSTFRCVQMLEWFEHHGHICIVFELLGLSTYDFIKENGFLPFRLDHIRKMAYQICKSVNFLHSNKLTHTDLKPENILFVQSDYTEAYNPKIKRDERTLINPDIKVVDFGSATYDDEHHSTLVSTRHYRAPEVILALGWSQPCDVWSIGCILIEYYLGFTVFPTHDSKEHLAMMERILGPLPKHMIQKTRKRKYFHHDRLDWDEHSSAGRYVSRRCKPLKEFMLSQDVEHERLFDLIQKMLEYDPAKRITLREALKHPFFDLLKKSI
Chain of LRRK2 (G2019S) (Q5S007 970-2527 G2019S limits assumed): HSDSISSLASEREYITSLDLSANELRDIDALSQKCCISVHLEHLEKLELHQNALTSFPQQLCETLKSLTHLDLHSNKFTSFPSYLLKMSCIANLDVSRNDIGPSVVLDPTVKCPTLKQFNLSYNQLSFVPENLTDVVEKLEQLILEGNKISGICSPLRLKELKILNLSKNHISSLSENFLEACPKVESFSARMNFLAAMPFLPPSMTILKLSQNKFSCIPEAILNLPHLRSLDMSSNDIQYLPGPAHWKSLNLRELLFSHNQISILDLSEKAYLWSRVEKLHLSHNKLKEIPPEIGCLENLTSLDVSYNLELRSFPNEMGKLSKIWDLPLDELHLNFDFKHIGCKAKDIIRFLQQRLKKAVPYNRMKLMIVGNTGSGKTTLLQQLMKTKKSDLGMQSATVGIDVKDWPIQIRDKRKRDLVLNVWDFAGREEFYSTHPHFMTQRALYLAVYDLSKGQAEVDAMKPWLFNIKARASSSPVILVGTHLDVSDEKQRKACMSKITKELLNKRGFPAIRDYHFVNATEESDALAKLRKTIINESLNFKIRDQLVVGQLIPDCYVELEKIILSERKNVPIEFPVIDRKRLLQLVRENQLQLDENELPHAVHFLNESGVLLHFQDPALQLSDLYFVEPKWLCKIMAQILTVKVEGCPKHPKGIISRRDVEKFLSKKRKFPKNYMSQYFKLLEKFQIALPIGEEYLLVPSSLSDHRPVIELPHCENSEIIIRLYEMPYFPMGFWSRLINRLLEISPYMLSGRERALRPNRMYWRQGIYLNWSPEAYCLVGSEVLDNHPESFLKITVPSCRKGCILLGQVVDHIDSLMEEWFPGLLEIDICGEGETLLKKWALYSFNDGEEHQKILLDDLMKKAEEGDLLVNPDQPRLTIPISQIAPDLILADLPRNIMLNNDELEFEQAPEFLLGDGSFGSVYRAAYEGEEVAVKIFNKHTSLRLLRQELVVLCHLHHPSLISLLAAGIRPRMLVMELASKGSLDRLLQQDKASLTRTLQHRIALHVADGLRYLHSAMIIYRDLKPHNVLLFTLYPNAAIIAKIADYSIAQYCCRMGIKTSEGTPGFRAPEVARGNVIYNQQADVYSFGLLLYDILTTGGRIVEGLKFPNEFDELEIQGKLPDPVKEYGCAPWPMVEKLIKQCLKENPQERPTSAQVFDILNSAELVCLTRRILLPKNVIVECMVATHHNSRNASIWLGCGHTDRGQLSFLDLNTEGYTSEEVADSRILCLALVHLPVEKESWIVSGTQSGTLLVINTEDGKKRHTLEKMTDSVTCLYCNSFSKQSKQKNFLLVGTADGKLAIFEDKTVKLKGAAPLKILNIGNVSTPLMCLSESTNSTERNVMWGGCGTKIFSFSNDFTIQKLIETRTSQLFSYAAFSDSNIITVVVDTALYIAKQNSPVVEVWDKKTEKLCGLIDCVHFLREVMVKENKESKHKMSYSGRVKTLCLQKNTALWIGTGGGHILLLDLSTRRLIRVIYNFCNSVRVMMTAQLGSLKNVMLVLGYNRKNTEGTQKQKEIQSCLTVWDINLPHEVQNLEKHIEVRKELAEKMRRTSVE

Compound | IC50 [1] [nM] | IC50 (LRRK2 (G2019S)) [nM] | IC50 (human GST-CLK1 (129-end)) [nM]
CCNc1cc(Nc2ccc(S(=O)(=O)N3CCC(N4CCOCC4)CC3)cc2OC)nc2[nH]ccc12 [Example 19, N^4-ethyl-N^6-(2-methoxy-4-((4-morpholinopiperidin-1-yl)sulfonyl)phenyl)-1H-pyrrolo[2,3-b]pyridine-4,6-diamine] | 301 to 1000 | < 100 | 301 to 1000
CCNc1cc(Nc2ccc(C(=O)N3CCO[C@@H](C)C3)c3c2OCC3)nc2[nH]cc(C(F)(F)F)c12 [Example 259, (S)-(7-((4-(ethylamino)-3-(trifluoromethyl)-1H-pyrrolo[2,3-b]pyridin-6-yl)amino)-2,3-dihydrobenzofuran-4-yl)(2-methylmorpholino) methanone] | < 100 | < 100 | < 100
CCCNc1cc(Nc2ccc(C(=O)N3CCOCC3)c3c2OCCO3)nc2[nH]cc(Cl)c12 [Example 58, (8-((3-chloro-4-(propylamino)-1H-pyrrolo[2,3-b]pyridin-6-yl)amino)-2,3-dihydrobenzo[b] [1,4]dioxin-5-yl)(morpholino) methanone] | 301 to 1000 | < 100 | 301 to 1000
CCNc1cc(Nc2ccc(C(=O)N3C[C@@H](C)O[C@@H](C)C3)c3c2OCC3)nc2[nH]cc(C(F)(F)F)c12 [Example 258, ((2S,6R)-2,6-dimethylmorpholino) (7-((4-(ethylamino)-3-(trifluoromethyl)-1H-pyrrolo[2,3-b]pyridin-6-yl)amino)-2,3-dihydrobenzofuran-4-yl)methanone] | < 100 | 301 to 1000 | 101 to 300
COc1cc(S(=O)(=O)N2CCOCC2)ccc1Nc1cc(NC(C)C)c2c(Cl)c[nH]c2n1 [Example 67, 3-chloro-N^4-isopropyl-N^6-(2-methoxy-4-(morpholinosulfonyl)phenyl)-1H-pyrrolo[2,3-b]pyridine-4,6-diamine] | 301 to 1000 | 301 to 1000 | 301 to 1000
O=C(c1ccc(Nc2cc(NC3CC3)c3c(Cl)c[nH]c3n2)c2c1OCCO2)N1CCOCC1 [Example 60, (8-((3-chloro-4-(cyclopropylamino)-1H-pyrrolo[2,3-b]pyridin-6-yl)amino)-2,3-dihydrobenzo [b] [1,4]dioxin-5-yl)(morpholino) methanone] | 301 to 1000 | < 100 | 301 to 1000
COc1cc(S(C)(=O)=O)ccc1Nc1cc(NCCS(C)(=O)=O)c2c(Cl)c[nH]c2n1 [Example 88, 3-chloro-N^6-(2-methoxy-4-(methylsulfonyl)phenyl)-N^4-(2-(methylsulfonyl)ethyl)-1H-pyrrolo[2,3-b]pyridine-4,6-diamine] | 301 to 1000 | 301 to 1000 | 301 to 1000
CCCNc1cc(Nc2ccc(S(=O)(=O)N3CCC(N4CCOCC4)CC3)cc2OC)nc2[nH]ccc12 [Example 20, N^6-(2-methoxy-4-((4-morpholinopiperidin-1-yl)sulfonyl)phenyl)-N^4-propyl-1H-pyrrolo[2,3-b]pyridine-4,6-diamine] | 301 to 1000 | < 100 | 301 to 1000
COc1cc(S(=O)(=O)N2CCC(N3CCOCC3)CC2)ccc1Nc1cc(NC2CCCC2)c2c(C#N)c[nH]c2n1 [Example 136, 4-(cyclopentylamino)-6-((2-methoxy-4-((4-morpholinopiperidin-1-yl)sulfonyl)phenyl)amino)-1H-pyrrolo[2,3-b]pyridine-3-carbonitrile] | 301 to 1000 | < 100 | 301 to 1000
CCCNc1cc(Nc2ccc(S(C)(=O)=O)cc2OC)nc2[nH]cc(Cl)c12 [Example 82, 3-chloro-N^6-(2-methoxy-4-(methylsulfonyl)phenyl)-N^4-propyl-1H-pyrrolo[2,3-b]pyridine-4,6-diamine] | 301 to 1000 | 301 to 1000 | 301 to 1000
CCNc1cc(Nc2ccc(C(=O)N3CCOCC3)c3c2OCCO3)nc2[nH]cc(Cl)c12 [Example 57, (8-((3-chloro-4-(ethylamino)-1H-pyrrolo[2,3-b]pyridin-6-yl)amino)-2,3-dihydrobenzo[b] [1,4]dioxin-5-yl)(morpholino) methanone] | 301 to 1000 | < 100 | 301 to 1000
CNc1cc(Nc2ccc(S(C)(=O)=O)cc2OC)nc2[nH]cc(Cl)c12 [Example 80, 3-chloro-N^6-(2-methoxy-4-(methylsulfonyl)phenyl)-N^4-methyl-1H-pyrrolo[2,3-b]pyridine-4,6-diamine] | 301 to 1000 | < 100 | 301 to 1000
CC(C)CNc1cc(Nc2ccc(C(=O)N3CCOCC3)c3c2OCCO3)nc2[nH]ccc12 [Example 6, (8-((4-(isobutylamino)-1H-pyrrolo[2,3-b]pyridin-6-yl)amino)-2,3-dihydrobenzo [b] [1,4]dioxin-5-yl)(morpholino) methanone] | 301 to 1000 | < 100 | 301 to 1000
C=CCNc1cc(Nc2ccc(C(=O)N3CC[C@H](N4CCOCC4)C3)c3c2OCC3)nc2[nH]cc(C(F)(F)F)c12 [Example 262, (S)-(7-((4-(allylamino)-3-(trifluoromethyl)-1H-pyrrolo[2,3-b]pyridin-6-yl)amino)-2,3-dihydrobenzofuran-4-yl)(3-morpholinopyrrolidin-1-yl)methanone] | 101 to 300 | < 100 | < 100
CCNc1cc(Nc2ccc(C(=O)N3CCC(N4C[C@@H](C)O[C@@H](C)C4)CC3)c3c2OCC3)nc2[nH]cc(C(F)(F)F)c12 [Example 263, (4-((2S,6R)-2,6-dimethylmorpholino)piperidin-1-yl)(7-((4-(ethylamino)-3-(trifluoromethyl)-1H-pyrrolo[2,3-b]pyridin-6-yl)amino)-2,3-dihydrobenzofuran-4-yl)methanone] | < 100 | < 100 | < 100
CCNc1cc(Nc2ccc(C(=O)N3CCN(C(C)C)CC3)c3c2OCC3)nc2[nH]cc(C(F)(F)F)c12 [Example 254, (7-((4-(ethylamino)-3-(trifluoromethyl)-1H-pyrrolo[2,3-b]pyridin-6-yl)amino)-2,3-dihydrobenzofuran-4-yl)(4-isopropylpiperazin-1-yl)methanone] | < 100 | < 100 | < 100
COc1cc(S(C)(=O)=O)ccc1Nc1cc(NC(C)C)c2c(Cl)c[nH]c2n1 [Example 83, 3-chloro-N^4-isopropyl-N^6-(2-methoxy-4-(methylsulfonyl)phenyl)-1H-pyrrolo[2,3-b]pyridine-4,6-diamine] | 301 to 1000 | 301 to 1000 | 301 to 1000
CNc1cc(Nc2ccc(S(=O)(=O)N3CCC(N4CCOCC4)CC3)cc2OC)nc2[nH]ccc12 [Example 18, N^6-(2-methoxy-4-((4-morpholinopiperidin-1-yl)sulfonyl)phenyl)-N^4-methyl-1H-pyrrolo[2,3-b]pyridine-4,6-diamine] | 301 to 1000 | < 100 | 301 to 1000
CNc1cc(Nc2ccc(C(=O)N3CCOCC3)c3c2OCCO3)nc2[nH]ccc12 [Example 2, (8-((4-(Methylamino)-1H-pyrrolo[2,3-b]pyridine-6-yl)amino)-2,3-dihydrobenzo[b] [1,4]dioxin-5-yl)(morpholino) methanone] | 301 to 1000 | < 100 | 301 to 1000
COc1cc(S(=O)(=O)N2CCC(N3CCOCC3)CC2)ccc1Nc1cc(NCCS(C)(=O)=O)c2cc[nH]c2n1 [Example 24, N^6-(2-methoxy-4-((4-morpholinopiperidin-1-yl)sulfonyl)phenyl)-N^4-(2-(methylsulfonyl)ethyl)-1H-pyrrolo[2,3-b]pyridine-4,6-diamine] | 301 to 1000 | < 100 | 301 to 1000
CCNc1cc(Nc2ccc(S(C)(=O)=O)cc2OC)nc2[nH]cc(Cl)c12 [Example 81, 3-chloro-N^4-ethyl-N^6-(2-methoxy-4-(methylsulfonyl)phenyl)-1H-pyrrolo[2,3-b]pyridine-4,6-diamine] | 301 to 1000 | 301 to 1000 | 301 to 1000
